From patent US12486269B2 (Aconcagua Bio, Inc., priority 2024, dated 2025) come the findings set out here.

Experiment [1] concerns the target T1, human calcitonin receptor (CTR) (Homo sapiens, UniProt P30988).
T1 construct: expressed in transfected cells; host or cells: COS-7 (COS7-human CTR Clone #2)
T1 sequence (P30988 25-474): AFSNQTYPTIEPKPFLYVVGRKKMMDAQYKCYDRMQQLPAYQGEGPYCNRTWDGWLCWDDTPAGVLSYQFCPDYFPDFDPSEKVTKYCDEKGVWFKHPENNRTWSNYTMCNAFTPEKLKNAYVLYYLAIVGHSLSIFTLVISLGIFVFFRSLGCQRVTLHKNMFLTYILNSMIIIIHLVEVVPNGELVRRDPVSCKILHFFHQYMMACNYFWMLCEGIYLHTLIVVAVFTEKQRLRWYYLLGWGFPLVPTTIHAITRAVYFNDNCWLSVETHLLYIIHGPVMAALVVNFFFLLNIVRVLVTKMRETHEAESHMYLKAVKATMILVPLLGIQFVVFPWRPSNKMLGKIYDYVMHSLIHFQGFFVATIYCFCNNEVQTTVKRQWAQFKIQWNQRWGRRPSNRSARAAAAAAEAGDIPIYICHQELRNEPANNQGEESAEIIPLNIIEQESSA
Briefly: Calcitonin Receptor (CTR) cAMP Assay. Format: cell-based. The conditions noted are these: COS7-human CTR Clone #2 stable cell line, cAMP dynamic 2 kit, 30 min; read-out: Calcitonin Receptor cAMP Stimulation Activity: EC50. The protocol: (§1) After incubation, the cAMP assay signal was generated using cAMP dynamic 2 kit (Revvity, Cat #62AM4PEC). 10 μL cAMP-d2 working solution was added to each well, followed by 10 μL Anti-cAMP antibody-cryptate working solution which was added to each well using CERTUS FLEX LIQUID […]. The samples were then incubated at room temperature for 1 hour protected from light. the fluorescence was read at 665 and 615 nm with Reader PerkinElmer EnVision 2105. % Activity=100−(mean RLU of test sample−mean RLU of positive control)/(mean RLU of vehicle control−mean RLU of positive control)×100 Calcitonin Receptor (CTR) cAMP Assay
The calcitonin receptor (CTR) belongs to the subfamily of GPCRs known as the secretin or ‘B’ family of GPCRs. Like other class B1 GPCRs, the CT receptor family is canonically coupled to Gs-mediated cAMP production, and measurement of cAMP accumulation has been the primary assay used to determine peptide selectivity and potency.
(§2) To optimize functional activity directed toward Gαs coupling, COS-7 cells were stably transfected with human calcitonin receptor (CTR) to create COS7-human CTR Clone #2 stable cell line. 100×concentration of compound working solutions were prepared with 4-fold serial dilution in 384-well Echo LDV plate (Labcyte, Cat #LP-0200-BC). 200 nL/well 100×concentration of compound working solutions were moved to 384-well white microplate (Perkin Elmer, Cat #6007680) using Labcyte ECHO550. 1×10^5 cells/mL COS7-human CTR Clone #2 cell suspensions prepared with assay buffer [HBSS containing 20 mM HEPES (Gibco, Cat #15630-080), 0.5 mM IBMX (Sigma, Cat #15879) and 0.1% Casein (Sigma, Cat #C4765)], 20 μL cell suspensions were added to each well of previous generated assay plate which already contains 200 nL compound at 100×concentration using ThermoFisher Multidrop Combi (2000 cells/well). Seal the plate and incubate at 37° C. with 5% CO2 for 30 min.
After incubation, the cAMP assay signal was generated using cAMP dynamic 2 kit (Revvity, Cat #62AM4PEC). 10 μL cAMP-d2 working solution was added to each well, followed by 10 μL Anti-cAMP antibody-cryptate working solution which was added to each well using CERTUS FLEX LIQUID […]. The samples were then incubated at room temperature for 1 hour protected from light. the fluorescence was read at 665 and 615 nm with Reader PerkinElmer EnVision 2105. % Activity=100−(mean RLU of test sample−mean RLU of positive control)/(mean RLU of vehicle control−mean RLU of positive control)×100

Experiment [2] deals with T2, COS-7/AMY3 (human calcitonin receptor (CTR) and RAMP3) (Homo sapiens, UniProt O60896+P30988).
T2 construct: expressed in transfected cells; host or cells: COS-7
Briefly: Amylin Receptor cAMP Assay II. The class given is cell-based. The conditions noted are these: values marked **: Amylin Receptor cAMP Assay II; COS-7/AMY3 cells, cAMP dynamic 2 kit, 30 min; read-out: Amylin Receptor cAMP Stimulation Activity: EC50.
Excerpt: AMYRs are heterodimers of the class B calcitonin (CT) G-protein-coupled receptor (CTR) and receptor activity-modifying proteins (RAMPs). All three RAMPs can interact with the CTR and form AMY1, AMY2, AMY3 with RAMP1, RAMP2 and RAMP3, respectively. Like other class B1 GPCRs, the CT receptor family is canonically coupled to Gs-mediated cAMP production, and measurement of cAMP accumulation has been the primary assay used to determine peptide selectivity and potency.
as §2, with “and RAMP3, simultaneously.” for “to create COS7-human CTR Clone #2 stable cell line.”, “COS-7/AMY3” for “COS7-human CTR Clone #2”
as §1

In general, EC50 refers to the midpoint of the concentration-response curve.

T2 sequence (O60896 24-148, one chain of several): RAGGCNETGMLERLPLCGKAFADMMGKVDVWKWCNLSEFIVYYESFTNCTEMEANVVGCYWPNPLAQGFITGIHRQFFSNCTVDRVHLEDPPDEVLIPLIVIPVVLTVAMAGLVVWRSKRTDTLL

As to `N#Cc1ccc(Cn2c(=O)oc3cc(-c4c5c(nc(CCC6CCOCC6)c4-c4cc(=O)[nH]o4)[C@@H]4CCCN4C5=O)ccc32)cc1F` [Compound 203, 4-[[6-[(9aS)-5-oxo-3-(3-oxoisoxazol-5-yl)-2-(2-tetrahydropyran-4-ylethyl)-1,4,7,8,9,9a-hexahydropyrido[2,3-a]pyrrolizin-4-yl]-2-oxo-1,3-benzoxazol-3-yl]methyl]-2-fluoro-benzonitrile], the results for the EC50 in experiment [1] and in experiment [2] were 4.69 nM and 529 nM, respectively.

In the case of `COc1cccc2c1CC[C@H]2Nc1nc(C(F)(F)F)cc2cc(-c3c4c(nc(CCc5ccc(F)cc5)c3-c3n[nH]c(=O)o3)[C@@H]3CCCN3C4=O)sc12` [Compound 215, 5-((S)-2-(4-fluorophenethyl)-4-(7-(((R)-4-methoxy-2,3-dihydro-1H-inden-1-yl)amino)-5-(trifluoromethyl)thieno[2,3-c]pyridin-2-yl)-5-oxo-7,8,9,9a-tetrahydro-5H-pyrido[2,3-a]pyrrolizin-3-yl)-1,3,4-oxadiazol-2(3H)-one], the half-maximal effective concentration (EC50) was determined as 0.406 nM in experiment [1] and 7.23 nM in experiment [2].

As for `COc1cccc2c1CC[C@H]2Nc1nccc2cc(-c3c4c(nc(CCc5ccc(F)cc5)c3-c3n[nH]c(=O)o3)[C@@H]3CCCN3C4=O)sc12` [Compound 102, 5-((S)-2-(4-fluorophenethyl)-4-(7-(((R)-4-methoxy-2,3-dihydro-1H-inden-1-yl)amino)thieno[2,3-c]pyridin-2-yl)-5-oxo-7,8,9,9a-tetrahydro-5H-pyrido[2,3-a]pyrrolizin-3-yl)-1,3,4-oxadiazol-2(3H)-one], the EC50 amounted to 0.8 nM in experiment [1] and 12.2 nM in experiment [2].

As for `COc1c(F)ccc2c1CC(F)(F)[C@@H]2Nc1nccc2cc(-c3c4c(nc(CCc5ccc(F)cc5)c3-c3n[nH]c(=O)o3)C35CC(CN3C4=O)C5)sc12` [Compound 292, (R)-5-(2-(4-fluorophenethyl)-5-oxo-4-(7-((2,2,5-trifluoro-4-methoxy-2,3-dihydro-1H-inden-1-yl)amino)thieno[2,3-c]pyridin-2-yl)-5,7,8,9-tetrahydro-8,9a-methanopyrido[2,3-a]pyrrolizin-3-yl)-1,3,4-oxadiazol-2(3H)-one], the results for the EC50 in experiment [1] and in experiment [2] were 7.36 nM and 298 nM, respectively.

As to `N#Cc1ccc(Cn2ccc3cc(-c4c5c(nc(CCc6ccc(F)cc6)c4-c4n[nH]c(=O)o4)[C@@H]4CCCN4C5=O)cnc32)nc1` [Compound 223, (S)-6-((5-(2-(4-fluorophenethyl)-5-oxo-3-(5-oxo-4,5-dihydro-1,3,4-oxadiazol-2-yl)-7,8,9,9a-tetrahydro-5H-pyrido[2,3-a]pyrrolizin-4-yl)-1H-pyrrolo[2,3-b]pyridin-1-yl)methyl)nicotinonitrile], the EC50 in experiment [1] came to 27.6 nM; in experiment [2], 758 nM.

Consider `COc1c(F)c(F)cc2c1CC[C@H]2Nc1nccc2cc(-c3c4c(nc(CCc5ccc(F)cc5)c3-c3n[nH]c(=O)o3)C35CC(CN3C4=O)C5)sc12` [Compound 286, (R)-5-(4-(7-((5,6-difluoro-4-methoxy-2,3-dihydro-1H-inden-1-yl)amino)thieno[2,3-c]pyridin-2-yl)-2-(4-fluorophenethyl)-5-oxo-8,9-dihydro-5H,7H-8,9a-methanopyrido[2,3-a]pyrrolizin-3-yl)-1,3,4-oxadiazol-2(3H)-one], for which the values for the EC50 in experiment [1] and in experiment [2] were 0.00668 nM and 0.175 nM, respectively.

As to `COc1c(F)ccc2c1CC[C@H]2Nc1nccc2cc(-c3c4c(nc(CCc5cccc(Cl)c5)c3-c3n[nH]c(=O)o3)C35CC(CN3C4=O)C5)sc12` [Compound 277, (R)-5-(2-(3-chlorophenethyl)-4-(7-((5-fluoro-4-methoxy-2,3-dihydro-1H-inden-1-yl)amino)thieno[2,3-c]pyridin-2-yl)-5-oxo-8,9-dihydro-5H,7H-8,9a-methanopyrido[2,3-a]pyrrolizin-3-yl)-1,3,4-oxadiazol-2(3H)-one], the values for the EC50 in experiment [1] and in experiment [2] were 0.0207 nM and 0.368 nM, respectively.

Regarding `Cc1cc2cc(-c3c4c(nc(CCc5ccc(F)cc5)c3-c3n[nH]c(=O)o3)[C@@H]3CCCN3C4=O)sc2c(N[C@@H]2CCc3cc(F)c(F)cc32)n1` [Compound 253, 5-((S)-4-(7-(((R)-5,6-difluoro-2,3-dihydro-1H-inden-1-yl)amino)-5-methylthieno[2,3-c]pyridin-2-yl)-2-(4-fluorophenethyl)-5-oxo-7,8,9,9a-tetrahydro-5H-pyrido[2,3-a]pyrrolizin-3-yl)-1,3,4-oxadiazol-2(3H)-one], the EC50 is 0.0708 nM in experiment [1] and 1.88 nM in experiment [2].

Regarding `O=C(c1ccc(-c2c3c(nc(CCc4ccc(F)cc4)c2-c2noc(=O)[nH]2)[C@@H]2CCCN2C3=O)s1)N1CCCC1c1ccc(F)c(F)c1` (stereo partly drawn) [Compound 116], the EC50 amounted to 25.6 nM in experiment [1] and 253 nM in experiment [2].

Regarding `COc1c(F)ccc2c1CC(F)(F)[C@H]2Nc1nc(C)cc2cc(-c3c4c(nc(CCc5ccc(F)cc5)c3-c3n[nH]c(=O)o3)[C@@H]3CCCN3C4=O)sc12` [Compound 303, 5-((S)-2-(4-fluorophenethyl)-4-(5-methyl-7-(((S)-2,2,5-trifluoro-4-methoxy-2,3-dihydro-1H-inden-1-yl)amino)thieno[2,3-c]pyridin-2-yl)-5-oxo-7,8,9,9a-tetrahydro-5H-pyrido[2,3-a]pyrrolizin-3-yl)-1,3,4-oxadiazol-2(3H)-one], the EC50 worked out at 0.0337 nM in experiment [1] and 0.695 nM in experiment [2].

Regarding `O=C1c2c(nc(CCc3ccc(F)cc3)c(-c3noc(=O)[nH]3)c2-c2ccc3c(NCc4ccc(F)c(F)c4)nccc3c2)[C@@H]2CCCN12` [Compound 111], the figures for the EC50 in experiment [1] and in experiment [2] were 205 nM and 401 nM, respectively.

`COc1cccc2c1CC[C@H]2Nc1nccc2cc(-c3c(-c4n[nH]c(=O)o4)c(CCc4ccc(F)cc4)nc4c3S(=O)(=O)N3CCC[C@@H]43)sc12` [Compound 175, 5-((S)-2-(4-fluorophenethyl)-4-(7-(((R)-4-methoxy-2,3-dihydro-1H-inden-1-yl)amino)thieno[2,3-c]pyridin-2-yl)-5,5-dioxido-7,8,9,9a-tetrahydropyrrolo[1′,2′:2,3]isothiazolo[4,5-b]pyridin-3-yl)-1,3,4-oxadiazol-2(3H)-one]: the EC50 in experiment [1] is 0.741 nM; in experiment [2] it was 26.8 nM.
